How the values were obtained:
Type in all cases: physicochemical
[1] = XRPD analysis of the sample after the DVS experiment (solid form stability to humidity); conditions: after DVS cycle 5% RH to 95% RH and back at 25° C.
Description: X-ray powder diffraction (XRPD) analysis was conducted on a diffractometer (PANalytical XPERT-PRO, PANalytical B. V., Almelo, Netherlands) using copper radiation (Cu Kα, λ=1.541874). Samples were spread evenly on a zero background sample plate. The generator was operated at a voltage of 45 kV and amperage of 40 mA. Slits were Soller 0.02 rad, antiscatter 1.0°, and divergence. Scans were performed from 2 to 40° 2θ with a 0.0167 step size. Data analysis was performed using X′Pert Data Viewer V1.2d (PANalytical B. V., Almelo, Netherlands).
(§1) Hygroscopicity was studied using dynamic vapor sorption (DVS, TA Q5000 SA, TA Instruments, New Castle, DE or DVS, DVS Intrinsic, Surface Measurement Systems, London, UK). A sample (2-20 mg) was placed in an aluminum DVS pan and loaded on the sample side of the twin pan balance. The water sorption and desorption were studied as a function of relative humidity (RH) at 25° C. In 10% RH increments, the relative humidity was increased from 5% RH to 95% RH and then decreased back to 5%. […] Data analysis was performed using Universal Analysis 2000 Version 4.7A (TA Instruments, New Castle, DE) for TA DVS runs and Microsoft Excel for SMS DVS runs.

[2] = Hygroscopicity by dynamic vapor sorption (DVS); conditions: up to 95% RH at 25° C.; bis-mesylate
Description: as §1

[3] = Solid form stability at ambient conditions; conditions: before KF could be run

SMILES | solid form found by XRPD after the DVS experiment [1] | water absorbed (dynamic vapor sorption) [2] | stability of the polymorphic form at ambient conditions [3]
C1=C(c2ccc3cn[nH]c3c2)N=C(Nc2ccc(N3CCOCC3)cc2)C2=NCCN12.CS(=O)(=O)O.CS(=O)(=O)O [Amorphous form, 6-(1H-indazol-6-yl)-N-(4-morpholinophenyl)-2,3-dihydroimidazo[1,2-a]pyrazin-8-amine bis-mesylate] | converted to Form VII | about 38 wt. % | –
C1=C(c2ccc3cn[nH]c3c2)N=C(Nc2ccc(N3CCOCC3)cc2)C2=NCCN12.CS(=O)(=O)O.CS(=O)(=O)O [Form I, 6-(1H-indazol-6-yl)-N-(4-morpholinophenyl)-2,3-dihydroimidazo[1,2-a]pyrazin-8-amine bis-mesylate] | converted to Form VII | about 30 wt. % | –
C1=C(c2ccc3cn[nH]c3c2)N=C(Nc2ccc(N3CCOCC3)cc2)C2=NCCN12.CS(=O)(=O)O.CS(=O)(=O)O [Form II, 6-(1H-indazol-6-yl)-N-(4-morpholinophenyl)-2,3-dihydroimidazo[1,2-a]pyrazin-8-amine bis-mesylate] | converted to Form VII | about 30 wt. % | –
C1=C(c2ccc3cn[nH]c3c2)N=C(Nc2ccc(N3CCOCC3)cc2)C2=NCCN12.CS(=O)(=O)O.CS(=O)(=O)O [Form VI, 6-(1H-indazol-6-yl)-N-(4-morpholinophenyl)-2,3-dihydroimidazo[1,2-a]pyrazin-8-amine bis-mesylate] | converted to Form VII | ~17 wt. % | –
C1=C(c2ccc3cn[nH]c3c2)N=C(Nc2ccc(N3CCOCC3)cc2)C2=NCCN12.CS(=O)(=O)O.CS(=O)(=O)O [Form XIII, 6-(1H-indazol-6-yl)-N-(4-morpholinophenyl)-2,3-dihydroimidazo[1,2-a]pyrazin-8-amine bis-mesylate] | converted to Form VII | ~25 wt. % | unstable at ambient conditions
C1=C(c2ccc3cn[nH]c3c2)N=C(Nc2ccc(N3CCOCC3)cc2)C2=NCCN12.CS(=O)(=O)O.CS(=O)(=O)O [Form XIV, 6-(1H-indazol-6-yl)-N-(4-morpholinophenyl)-2,3-dihydroimidazo[1,2-a]pyrazin-8-amine bis-mesylate] | converted to Form VII | about 35 wt. % | –
C1=C(c2ccc3cn[nH]c3c2)N=C(Nc2ccc(N3CCOCC3)cc2)C2=NCCN12.CS(=O)(=O)O.CS(=O)(=O)O [Form XIX, 6-(1H-indazol-6-yl)-N-(4-morpholinophenyl)-2,3-dihydroimidazo[1,2-a]pyrazin-8-amine bis-mesylate] | converted to Form VII | about 28 wt. % | –
C1=C(c2ccc3cn[nH]c3c2)N=C(Nc2ccc(N3CCOCC3)cc2)C2=NCCN12.CS(=O)(=O)O.CS(=O)(=O)O [Form XV, 6-(1H-indazol-6-yl)-N-(4-morpholinophenyl)-2,3-dihydroimidazo[1,2-a]pyrazin-8-amine bis-mesylate] | converted to Form VII | ~23 wt. % | –
C1=C(c2ccc3cn[nH]c3c2)N=C(Nc2ccc(N3CCOCC3)cc2)C2=NCCN12.CS(=O)(=O)O.CS(=O)(=O)O [Form XVI, 6-(1H-indazol-6-yl)-N-(4-morpholinophenyl)-2,3-dihydroimidazo[1,2-a]pyrazin-8-amine bis-mesylate] | converted to Form VII | ~28 wt. % | –
C1=C(c2ccc3cn[nH]c3c2)N=C(Nc2ccc(N3CCOCC3)cc2)C2=NCCN12.CS(=O)(=O)O.CS(=O)(=O)O [Form XVIII, 6-(1H-indazol-6-yl)-N-(4-morpholinophenyl)-2,3-dihydroimidazo[1,2-a]pyrazin-8-amine bis-mesylate] | converted to Form VII | – | –

Source: patent US12122781B2, “Hydrates of polymorphs of 6-(1H-indazol-6-yl)-N-(4-morpholinophenyl)-2,3-dihydroimidazo[1,2-a]pyrazin-8-amine bis-mesylate as Syk inhibitors” (Kronos Bio, Inc., priority 2017, dated 2024)
